In ChEMBL document CHEMBL4270586, “Novel hydrazido benzenesulfonamides-isatin conjugates: Synthesis, carbonic anhydrase inhibitory activity and molecular modeling studies” (Eur J Med Chem, 2018):

Target: Carbonic anhydrase 9 (Homo sapiens, UniProt Q16790)
Experiment: Inhibition of recombinant human carbonic anhydrase 9 incubated for 15 mins prior to testing by stopped flow CO2 hydration assay

| Compound | Ki [µM] |
| --- | --- |
| COc1ccc2c(c1)C(=NNC(=O)c1ccc(S(N)(=O)=O)cc1)C(=O)N2 | 0.264 |
| CCOC(=O)CN1C(=O)C(=NNC(=O)c2ccc(S(N)(=O)=O)cc2)c2ccccc21 | 0.0177 |
| CC(C)N1C(=O)C(=NNC(=O)c2ccc(S(N)(=O)=O)cc2)c2ccccc21 | 0.177 |
| NS(=O)(=O)c1ccc(C(=O)NN=C2C(=O)Nc3ccc(Br)cc32)cc1 | 0.101 |
| NS(=O)(=O)c1ccc(C(=O)NN=C2C(=O)Nc3ccc(Cl)cc32)cc1 | 0.0315 |
| Cc1ccc(CN2C(=O)C(=NNC(=O)c3ccc(S(N)(=O)=O)cc3)c3ccccc32)cc1 | 0.0812 |
| C=CCN1C(=O)C(=NNC(=O)c2ccc(S(N)(=O)=O)cc2)c2ccccc21 | 0.0779 |
| NS(=O)(=O)c1ccc(C(=O)NN=C2C(=O)Nc3ccc([N+](=O)[O-])cc32)cc1 | 0.0238 |
| NS(=O)(=O)c1ccc(C(=O)NN=C2C(=O)Nc3ccc(F)cc32)cc1 | 0.0323 |
| Cc1ccc2c(c1)C(=NNC(=O)c1ccc(S(N)(=O)=O)cc1)C(=O)N2 | 0.197 |
| NS(=O)(=O)c1ccc(C(=O)NN=C2C(=O)N(Cc3ccccc3)c3ccccc32)cc1 | 0.0252 |
| CN1C(=O)C(=NNC(=O)c2ccc(S(N)(=O)=O)cc2)c2ccccc21 | 0.0306 |
| CCCN1C(=O)C(=NNC(=O)c2ccc(S(N)(=O)=O)cc2)c2ccccc21 | 0.0301 |
| NS(=O)(=O)c1ccc(C(=O)NN=C2C(=O)N(Cc3ccc(F)cc3)c3ccccc32)cc1 | 0.148 |
| Cc1cc(C)c2c(c1)C(=NNC(=O)c1ccc(S(N)(=O)=O)cc1)C(=O)N2 | 0.716 |
| NS(=O)(=O)c1ccc(C(=O)NN=C2C(=O)Nc3ccccc32)cc1 | 0.174 |
| CCCCN1C(=O)C(=NNC(=O)c2ccc(S(N)(=O)=O)cc2)c2ccccc21 | 0.0274 |
| CCN1C(=O)C(=NNC(=O)c2ccc(S(N)(=O)=O)cc2)c2ccccc21 | 0.0089 |
